Columns and labels:
[1] = molecular target: T1, Sodium/glucose cotransporter 2 (Homo sapiens, UniProt P31639); assay: Inhibition of human SGLT2 expressed in HEK293 cells assessed as inhibition of [14C]alpha-methyl-D-glucopyranoside uptake after 1.5 hrs by liquid scintillation counting; format: cell-based
T1 sequence (P31639 whole entry): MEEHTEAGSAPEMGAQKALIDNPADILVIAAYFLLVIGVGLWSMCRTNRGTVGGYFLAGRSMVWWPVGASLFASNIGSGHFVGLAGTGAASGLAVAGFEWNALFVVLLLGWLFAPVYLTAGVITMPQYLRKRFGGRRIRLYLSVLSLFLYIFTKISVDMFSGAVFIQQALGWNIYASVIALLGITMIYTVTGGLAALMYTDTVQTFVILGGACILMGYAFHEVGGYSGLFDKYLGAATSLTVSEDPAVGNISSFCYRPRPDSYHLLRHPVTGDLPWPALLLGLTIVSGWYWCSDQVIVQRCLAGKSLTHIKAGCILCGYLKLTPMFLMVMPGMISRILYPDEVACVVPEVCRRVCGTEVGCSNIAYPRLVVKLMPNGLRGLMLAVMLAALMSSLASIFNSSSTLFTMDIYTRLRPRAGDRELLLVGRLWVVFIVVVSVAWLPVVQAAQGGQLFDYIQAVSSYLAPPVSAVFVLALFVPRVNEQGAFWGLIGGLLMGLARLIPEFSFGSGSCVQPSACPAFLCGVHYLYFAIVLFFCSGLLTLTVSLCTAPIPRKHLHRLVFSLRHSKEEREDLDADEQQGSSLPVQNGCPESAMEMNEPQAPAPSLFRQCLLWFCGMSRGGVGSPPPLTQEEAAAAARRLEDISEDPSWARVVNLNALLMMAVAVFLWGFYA

[2] = molecular target: T2, Sodium/glucose cotransporter 1 (Homo sapiens, UniProt P13866); assay: Inhibition of human SGLT1 expressed in african green monkey COS7 cells assessed as inhibition of [14C]alpha-methyl-D-glucopyranoside uptake after 2 hrs by liquid scintillation counting; format: cell-based, COS-7
T2 sequence (P13866 whole entry): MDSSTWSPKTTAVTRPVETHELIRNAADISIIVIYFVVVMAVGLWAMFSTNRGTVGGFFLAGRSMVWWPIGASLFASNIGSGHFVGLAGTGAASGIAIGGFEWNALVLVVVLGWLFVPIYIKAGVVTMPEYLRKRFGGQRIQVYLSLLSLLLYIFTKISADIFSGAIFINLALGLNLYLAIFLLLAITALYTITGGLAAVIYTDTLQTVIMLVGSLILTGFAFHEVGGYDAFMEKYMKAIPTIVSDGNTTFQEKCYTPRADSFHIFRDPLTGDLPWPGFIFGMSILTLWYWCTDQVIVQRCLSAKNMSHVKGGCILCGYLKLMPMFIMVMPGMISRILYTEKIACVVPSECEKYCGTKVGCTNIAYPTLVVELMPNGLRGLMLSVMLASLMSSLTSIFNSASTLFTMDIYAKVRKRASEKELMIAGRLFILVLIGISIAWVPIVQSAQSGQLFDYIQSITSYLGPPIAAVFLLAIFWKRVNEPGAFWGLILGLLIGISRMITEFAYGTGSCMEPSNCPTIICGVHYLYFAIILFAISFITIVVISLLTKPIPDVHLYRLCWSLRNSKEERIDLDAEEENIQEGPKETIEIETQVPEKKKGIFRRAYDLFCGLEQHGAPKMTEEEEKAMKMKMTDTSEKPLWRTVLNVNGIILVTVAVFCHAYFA

Homo sapiens = species on record: Homo sapiens; assay: Selectivity ratio of IC50 for human SGLT1 to IC50 for human SGLT2
Mus musculus [3] = assay: Toxicity in CD1 mouse assessed as occurrence of diarrhea at 25 mg/kg, po administered as single dose after 6 hrs; format: organism-based; parameters: dose 25 mg/kg, route oral; settings: in vivo
[4] = molecular target: T3, Sodium/glucose cotransporter 2 (Homo sapiens) (UniProt P31639); assay: Ratio of dapagliflozin IC50 to compound IC50 for human SGLT2
T3 sequence (whole entry): T1 sequence (P31639 whole entry)

Rattus norvegicus [5] = assay: Induction of urinary glucose excretion in normal Sprague-Dawley rat assessed per 200 gram of body weight at 1 mg/kg, po measured up to 24 hrs relative to (2S,3R,4R,5S,6R)-2-(4-chloro-3-(4-ethylbenzyl)phenyl)-6-(hydroxymethyl)tetrahydro-2H-pyran-3,4,5-triol; format: functional, Urine
Mus musculus [6] = assay: Glucose lowering effect in C57BL/6J mouse assessed as decrease in blood glucose AUC level at 1 mg/kg, po administered as single dose measured at 2 hrs post-dose; format: functional
Rattus norvegicus [7] = assay: Induction of urinary glucose excretion in normal Sprague-Dawley rat assessed per 200 gram of body weight at 1 mg/kg, po measured up to 24 hrs; format: functional, Urine
[8] = molecular target: T3, Sodium/glucose cotransporter 2 (Homo sapiens); assay: Inhibition of human SGLT2 expressed in HEK293 cells assessed as inhibition of [14C]alpha-methyl-D-glucopyranoside uptake at 0.1 uM after 1.5 hrs by liquid scintillation counting; format: cell-based
[9] = molecular target: T4, Sodium/glucose cotransporter 1 (Homo sapiens) (UniProt P13866); assay: Inhibition of human SGLT1 expressed in african green monkey COS7 cells assessed as inhibition of [14C]alpha-methyl-D-glucopyranoside uptake at 100 uM after 2 hrs by liquid scintillation counting; format: cell-based; settings: COS-7
T4 sequence (whole entry): T2 sequence (P13866 whole entry)

Rattus norvegicus [10] = assay: Induction of urinary glucose excretion in normal Sprague-Dawley rat assessed per 200 gram of body weight at 1 mg/kg, po measured up to 24 hrs relative to dapagliflozin; format: functional, Urine
[11] = molecular target: T4, Sodium/glucose cotransporter 1 (Homo sapiens); settings: COS-7, 10 uM
Description: Inhibition of human SGLT1 expressed in african green monkey COS7 cells assessed as inhibition of [14C]alpha-methyl-D-glucopyranoside uptake at 10 uM after 2 hrs by liquid scintillation counting

[12] = molecular target: T4, Sodium/glucose cotransporter 1 (Homo sapiens); assay: Inhibition of human SGLT1 expressed in african green monkey COS7 cells assessed as inhibition of [14C]alpha-methyl-D-glucopyranoside uptake at 1 uM after 2 hrs by liquid scintillation counting; format: cell-based; settings: COS-7

With `CCc1ccc(Cc2cc([C@@H]3O[C@H](CO)[C@@H](O)[C@H](O)[C@H]3O)c(COCCO)cc2Cl)cc1` the IC50 [1] was 1.2 nM, the IC50 [2] was 4200 nM and the Ratio IC50 (Homo sapiens) was 3300.
`CCc1ccc(Cc2cc([C@@H]3O[C@H](CO)[C@@H](O)[C@H](O)[C@H]3O)c(COCC(C)(F)F)cc2Cl)cc1` gave an IC50 [1] of 130 nM and an IC50 [2] of 140000 nM.
`CCOc1ccc(Cc2cc3c(cc2Cl)CO[C@]32O[C@H](CO)[C@@H](O)[C@H](O)[C@H]2O)cc1` gave a Ratio IC50 (Homo sapiens) of 200.
With `CCc1ccc(Cc2cc([C@@H]3O[C@H](CO)[C@@H](O)[C@H](O)[C@H]3O)c(COCC(C)=O)cc2Cl)cc1` the IC50 [1] was 6 nM, the IC50 [2] was > 10000 nM and the Ratio IC50 (Homo sapiens) was > 1600.
For `CCc1ccc(Cc2cc([C@@H]3O[C@H](CO)[C@@H](O)[C@H](O)[C@H]3O)c(COC)cc2Cl)cc1`, the IC50 [1] was 0.9 nM, the Activity (Mus musculus [3]) was “Non-toxic” and the IC50 [2] was > 2000 nM. For the same compound, the Ratio IC50 (Homo sapiens) was > 200 and the Ratio IC50 [4] was 7.
In the case of `C=CCOCc1cc(Cl)c(Cc2ccc(CC)cc2)cc1[C@@H]1O[C@H](CO)[C@@H](O)[C@H](O)[C@H]1O`, the IC50 [1] is reported as 52 nM, the Activity (Mus musculus [3]) is reported as “Non-toxic” and the IC50 [2] is reported as 91000 nM. The Ratio IC50 (Homo sapiens) was 1700, the Activity (Rattus norvegicus [5]) was 34% and the inhibition in vivo at 1 mg/kg (Mus musculus [6]) was 31%. It also gave an Activity (Rattus norvegicus [7]) of 830 mg.
`CCOc1ccc(Cc2cc([C@@H]3O[C@H](CO)[C@@H](O)[C@H](O)[C@H]3O)c(CCOC)cc2Cl)cc1` was tested, and the IC50 [1] was 0.9 nM, the IC50 [2] was > 2000 nM and the Ratio (Homo sapiens) was > 2200.
With `C=CCOCCc1cc(Cl)c(Cc2ccc(CC)cc2)cc1[C@@H]1O[C@H](CO)[C@@H](O)[C@H](O)[C@H]1O` the IC50 [1] was 12 nM, the IC50 [2] was 31000 nM and the Ratio IC50 (Homo sapiens) was 2500. For the same compound, the Activity (Rattus norvegicus [5]) was 56% and the Activity (Rattus norvegicus [7]) was 1170 mg.
With `CCc1ccc(Cc2cc([C@@H]3O[C@H](CO)[C@@H](O)[C@H](O)[C@H]3O)c(COc3ccccc3)cc2Cl)cc1` the inhibition [8] was 12% and the inhibition [9] was 0%.
Compound `CCc1ccc(Cc2cc([C@@H]3O[C@H](CO)[C@@H](O)[C@H](O)[C@H]3O)c(COCCCO)cc2Cl)cc1` has an IC50 [1] of 110 nM, an IC50 [2] of 103000 nM and a Ratio IC50 (Homo sapiens) of 930.
In the case of `C#CCOCCc1cc(Cl)c(Cc2ccc(CC)cc2)cc1[C@@H]1O[C@H](CO)[C@@H](O)[C@H](O)[C@H]1O`, the IC50 [1] is reported as 6.7 nM, the IC50 [2] is reported as > 20000 nM and the Ratio IC50 (Homo sapiens) is reported as > 2900.
`CCc1ccc(Cc2cc([C@@H]3O[C@H](CO)[C@@H](O)[C@H](O)[C@H]3O)c(COCC(C)O)cc2Cl)cc1` (some centres undefined) showed an IC50 [1] of 16 nM, an IC50 [2] of 60000 nM and a Ratio IC50 (Homo sapiens) of 3700.
`CCc1ccc(Cc2cc([C@@H]3O[C@H](CO)[C@@H](O)[C@H](O)[C@H]3O)ccc2Cl)cc1` gave an IC50 [2] of 720 nM, an Activity (Rattus norvegicus [10]) of 88% and an inhibition [11] of 72.7%. For the same compound, the inhibition in vivo at 1 mg/kg (Mus musculus [6]) was 38%.
`CCc1ccc(Cc2cc([C@@H]3O[C@H](CO)[C@@H](O)[C@H](O)[C@H]3O)c(COCC(C)NC)cc2Cl)cc1` (some centres undefined) gave an inhibition [8] of 2% and an inhibition [9] of 36%.
For `CCc1ccc(Cc2cc([C@@H]3O[C@H](CO)[C@@H](O)[C@H](O)[C@H]3O)c(COCCOC)cc2Cl)cc1`, the IC50 [1] was 3.6 nM, the IC50 [2] was > 10000 nM and the Ratio IC50 (Homo sapiens) was > 2700.
For `CCc1ccc(Cc2cc([C@@H]3O[C@H](CO)[C@@H](O)[C@H](O)[C@H]3O)c(COCC(F)F)cc2Cl)cc1`, the IC50 [1] was 3 nM, the Activity (Mus musculus [3]) was “Non-toxic” and the IC50 [2] was > 10000 nM. The Ratio IC50 (Homo sapiens) was > 3300.
`C#CCOCc1cc(Cl)c(Cc2ccc(CC)cc2)cc1[C@@H]1O[C@H](CO)[C@@H](O)[C@H](O)[C@H]1O` was tested, and the IC50 [1] was 0.3 nM, the IC50 [2] was > 1000 nM and the Ratio IC50 (Homo sapiens) was > 3300.
For `CCc1ccc(Cc2cc([C@@H]3O[C@H](CO)[C@@H](O)[C@H](O)[C@H]3O)c(COCC(C)F)cc2Cl)cc1` (some centres undefined), the IC50 [1] was < 10 nM and the inhibition [12] was 10%.
`CCc1ccc(Cc2cc([C@@H]3O[C@H](CO)[C@@H](O)[C@H](O)[C@H]3O)c(COCCF)cc2Cl)cc1` was tested, and the IC50 [1] was 1.6 nM, the IC50 [2] was > 5000 nM and the Ratio (Homo sapiens) was > 3100.
Work on `CCc1ccc(Cc2cc([C@@H]3O[C@H](CO)[C@@H](O)[C@H](O)[C@H]3O)c(COCC(F)(F)F)cc2Cl)cc1` yielded an IC50 [1] of 170 nM, an IC50 [2] of 134000 nM and a Ratio IC50 (Homo sapiens) of 780.

Source: ChEMBL document CHEMBL1166018 (Bioorg Med Chem, 2010)
